Experimental findings from US6231885A, “Composition for controlled and sustained transdermal administration” (Permatec Technologie AG, priority 1997, dated 2001) are described below.

The nature of this series: In vitro enhancer release, paddle over disk method (apparatus 5, USP 23). It counts as physicochemical. Particulars: in words, in vitro and in vivo results. The method, then: The release of lauric acid and oleic acid was analyzed using paddle over disk method (apparatus 5, USP 23, Drug Release 724).
FIG. 1 schematically shown the apparatus mentioned before. In these experiments we have determined the release profiles of lauric acid and oleic acid from transdermal patches, measuring the remaining drug (by means of HPLC techniques) in samples taken at different time points.
The examples used were: Example 1; Example 2 and Example 3.
The dissolution conditions used were: paddle speed: 50 rpm; temperature: 32° C.; dissolution medium: aqueous solution of sodium dodecyl sulphate 0.3%; volume: 500 ml; sample program: 0.5; 1.0; 2.0; 4.0; 8.0 and 24 h.

“Also recorded” adds a separate entry of the source.

Take `CCCCCCCCCCCC(=O)O` [Lauric acid]: the “Release from the adhesive matrix” value is reported as “rapid release”. Moreover, the “Release from the adhesive matrix” value (listed as lauric acid) is on record as “a great proportion of the amount of lauric acid is delivered at early times”.
Turning to `CCCCCCCC/C=C\CCCCCCCC(=O)O` [oleic acid], the “Release from the adhesive matrix” value is “slow release; also recorded: delivered in small amount and is prone to remain in the adhesive monolithic matrix”.
